According to US8802634B2, “CD40-L Inhibitory Peptides” (Phylogica Limited, priority 2008, dated 2014):
pEC50: −log10 of the molar value. Where a SMILES comes first, the peptide text is derived from it. [ ]: non-standard residue; d: D form.

Target: CD40L-induced CD86 expression on primary B-cells (Homo sapiens, UniProt P29965)
Assay: Inhibition of CD40L-induced CD86 expression on primary B-cells (FACS)
Format: cell-based
Conditions: for pEC50: PEGylated monomeric peptide, read-out: EC50 PEGylated peptide
Method: In one example, the ability of a peptide, analog or derivative of the invention to inhibit or reduce or delay expression of CD86 on primary B-cells was determined in the presence and absence of the peptides, analogs and derivatives of the invention. In particular, CD86 expression was determined by FACS.
In these assays, CD40L induced CD86 expression in a concentration-dependent manner in the absence of a peptidyl inhibitor of the present invention with an EC50 value of about 9 nM (FIG. 6d, 6e). As a control in these assays, LPS-induced expression of CD86 mediated by the Toll-like receptors TLR 2/4, and TNFα-induced cytoxicity, were also assayed to exclude effects mediated by ligands other than CD40L.
In a similar series of bioassays, dimeric forms of the CD40L peptide inhibitors were also tested for their ability to inhibit or reduce CD40L-induced expression of CD86 on primary B-cells.

Sequence of CD40L-induced CD86 expression on primary B-cells (P29965 whole entry): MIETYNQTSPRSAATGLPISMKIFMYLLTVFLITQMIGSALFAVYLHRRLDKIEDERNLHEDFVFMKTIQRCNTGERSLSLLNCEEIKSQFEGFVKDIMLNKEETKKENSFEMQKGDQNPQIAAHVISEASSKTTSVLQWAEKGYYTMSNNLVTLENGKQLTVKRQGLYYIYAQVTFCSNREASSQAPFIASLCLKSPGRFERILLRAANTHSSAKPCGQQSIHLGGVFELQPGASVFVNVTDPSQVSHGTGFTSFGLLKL
Sequence of CD40L-induced CD86 expression on primary B-cells (P25942 21-277 partner): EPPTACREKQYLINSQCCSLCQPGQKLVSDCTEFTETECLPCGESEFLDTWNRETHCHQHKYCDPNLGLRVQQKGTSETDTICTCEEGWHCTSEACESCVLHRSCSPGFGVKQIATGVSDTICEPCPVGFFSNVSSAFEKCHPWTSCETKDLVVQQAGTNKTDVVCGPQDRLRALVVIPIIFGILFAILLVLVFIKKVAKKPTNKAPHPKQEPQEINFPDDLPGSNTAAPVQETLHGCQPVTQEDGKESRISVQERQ

CC[C@H](C)[C@H](NC(=O)[C@H](CCC(N)=O)NC(=O)[C@H](Cc1ccccc1)NC(=O)[C@H](Cc1ccccc1)NC(=O)[C@H](CCC(=O)O)NC(=O)[C@H](CCCNC(=N)N)NC(=O)CNC(=O)[C@H](C)NC(=O)[C@H](C)NC(=O)[C@@H](N)CC(=O)O)C(=O)N[C@@H](C)C(=O)NCC(=O)N[C@@H](CC(C)C)C(=O)N[C@@H](Cc1ccccc1)C(=O)N[C@@H](CO)C(=O)N[C@@H](Cc1ccccc1)C(=O)N[C@@H](CCCNC(=N)N)C(=O)N[C@@H](Cc1c[nH]cn1)C(=O)N[C@@H](Cc1c[nH]cn1)C(=O)N[C@@H](Cc1c[nH]c2ccccc12)C(=O)N[C@@H](Cc1c[nH]c2ccccc12)C(=O)N[C@@H](CCC(N)=O)C(=O)N[C@@H](C)C(=O)O [CD40L M1_30s] (H-DAAGREFFQIAGLFSFRHHWWQA-OH; N-terminus and C-terminus assumed)
pEC50: < 5.70

CC[C@H](C)[C@H](NC(=O)CNC(=O)CNC(=O)[C@H](CCCNC(=N)N)NC(=O)[C@H](CCC(N)=O)NC(=O)[C@@H](NC(=O)CNC(=O)[C@H](CO)NC(=O)[C@@H]1CCCN1C(=O)[C@@H](NC(=O)[C@H](Cc1ccccc1)NC(=O)[C@H](CC(C)C)NC(=O)[C@H](CO)NC(=O)[C@H](Cc1ccc(O)cc1)NC(=O)[C@H](Cc1ccccc1)NC(=O)[C@H](CCCNC(=N)N)NC(=O)[C@H](CC(N)=O)NC(=O)[C@H](CCCNC(=N)N)NC(=O)[C@@H](NC(=O)[C@H](Cc1c[nH]c2ccccc12)NC(=O)[C@H](CCCNC(=N)N)NC(=O)[C@@H]1CCCN1)C(C)C)C(C)C)C(C)C)C(=O)N[C@@H](Cc1c[nH]cn1)C(=O)N[C@@H](CC(C)C)C(=O)N[C@@H](Cc1c[nH]c2ccccc12)C(=O)N[C@@H](Cc1ccccc1)C(=O)N[C@@H](CO)C(=O)N[C@@H](CC(N)=O)C(=O)N[C@@H](Cc1c[nH]c2ccccc12)C(=O)N[C@H](C(=O)N[C@@H](CCCNC(=N)N)C(=O)O)C(C)C [CD40L M1_50s] (H-PRWVRNRFYSLFVPSGVQRGGIHLWFSNWVR-OH; N-terminus and C-terminus assumed)
pEC50: 7.52

CC[C@@H](C)[C@@H](NC(=O)[C@@H](Cc1ccccc1)NC(=O)[C@@H](C)NC(=O)[C@H](NC(=O)[C@@H](CC(C)C)NC(=O)[C@H]1CCCN1C(=O)[C@@H](Cc1ccccc1)NC(=O)[C@@H](CCC(N)=O)NC(=O)[C@@H](Cc1ccc(O)cc1)NC(=O)[C@@H](CC(C)C)NC(=O)[C@@H](Cc1c[nH]cn1)NC(=O)[C@@H](CCCNC(=N)N)NC(=O)[C@@H](CS)NC(=O)[C@H](N)CCCNC(=N)N)C(C)C)C(=O)N[C@H](CO)C(=O)N[C@H](Cc1c[nH]c2ccccc12)C(=O)N[C@H](CCC(N)=O)C(=O)N[C@@H](C(=O)N1CCC[C@@H]1C(=O)N[C@H](Cc1ccccc1)C(=O)N[C@H](Cc1ccccc1)C(=O)N[C@H](Cc1c[nH]c2ccccc12)C(=O)NCC(=O)N[C@H](Cc1ccc(O)cc1)C(=O)N[C@H](CCCCN)C(=O)N[C@H](CC(C)C)C(=O)N[C@@H](C(=O)N[C@H](Cc1c[nH]cn1)C(=O)N[C@H](CO)C(=O)N[C@H](CCCNC(=N)N)C(=O)N[C@H](Cc1ccc(O)cc1)C(=O)N1CCC[C@@H]1C(=O)N[C@@H](C(=O)N[C@H](Cc1ccccc1)C(=O)N1CCC[C@@H]1C(=O)N[C@H](CC(C)C)C(=O)O)C(C)C)C(C)C)C(C)C [CD40L M1_18rd] (H-[dR][dC][dR][dH][dL][dY][dQ][dF][dP][dL][dV][dA][dF][dI][dS][dW][dQ][dV][dP][dF][dF][dW]G[dY][dK][dL][dV][dH][dS][dR][dY][dP][dV][dF][dP][dL]-OH; N-terminus and C-terminus assumed)
inhibition of CD40L-induced CD86 expression (qualitative) (figure legends): enhanced inhibition
